Among the test systems are COLO 205 colon; MOLT-4 leukemia; NCI-H23 lung; OVCAR-4 ovarian; SK-MEL-28 melanoma; SW-620 colon; U251 CNS; DU-145 prostate; HS 578T breast; K-562 leukemia; MDA-MB-435; T-47D breast.
Holding throughout (assay): NCI anticancer screen, dose series, 48 h

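Compound exposure: 48 hours, 5 concentrations, 96-well plates. GI50: concentration for 50% inhibition of growth. TGI is the concentration that stops growth completely.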

`CC(=O)OC1/C=C(\C)C(OC(C)=O)C/C=C(/C)CCC2C(/C=C/C1=O)C2(C)C` (stereo not drawn): the TGI in the test with COLO 205 colon, in the test on MOLT-4 leukemia, with NCI-H23 lung, in the test on OVCAR-4 ovarian, with SK-MEL-28 melanoma and in the test with SW-620 colon was more than 100 µM in each case. The TGI in the test on U251 CNS was more than 100 µM.
Turning to `NS(=O)(=O)c1ccc(/C=C/c2ccc(O)c(O)c2)cc1`, the TGI in the test on COLO 205 colon was 53.8 µM; with DU-145 prostate it was more than 100 µM; in the test on HS 578T breast it was 92.8 µM; in the test with K-562 leukemia, more than 100 µM; in the test on MDA-MB-435, 51.5 µM; in the test on MOLT-4 leukemia it was 53.7 µM. Besides, the TGI in the test with NCI-H23 lung was 79.3 µM; in the test on OVCAR-4 ovarian it was 27.2 µM; in the test on SK-MEL-28 melanoma, 78.6 µM; with SW-620 colon, more than 100 µM; in the test with T-47D breast, 53.1 µM; in the test with U251 CNS, 46.9 µM. Further, the GI50 with HS 578T breast was 25.6 µM; with K-562 leukemia, 35.3 µM; in the test with MDA-MB-435 it was 16.8 µM; in the test on MOLT-4 leukemia it was 12.8 µM; in the test on NCI-H23 lung it was 25.9 µM; with OVCAR-4 ovarian, 11.6 µM. Besides, the GI50 with U251 CNS was 16.3 µM.
Take `COC(=O)c1c(O)ccc2c1c1c(n2Cc2cc(OC)cc(OC)c2)C(=O)c2ccccc2C1`: the TGI in the test on COLO 205 colon is 26 µM; with DU-145 prostate it was more than 100 µM; in the test on HS 578T breast it was more than 100 µM; with K-562 leukemia, more than 100 µM; with MDA-MB-435, 61.7 µM; in the test on MOLT-4 leukemia, more than 100 µM. The TGI in the test on NCI-H23 lung was more than 100 µM; with OVCAR-4 ovarian, 44.8 µM; with SK-MEL-28 melanoma, 60.9 µM; in the test with SW-620 colon, more than 100 µM; in the test with U251 CNS, more than 100 µM.
For the molecule `CC1(C)OC(C(=O)Nc2cc3c4ccccc4ccc3c3ccccc23)C(C(=O)N2CCCCC2)O1` (stereo not drawn), the TGI is more than 100 µM in the test with COLO 205 colon; more than 100 µM with DU-145 prostate; more than 96.6 µM in the test with HS 578T breast; more than 100 µM in the test with K-562 leukemia; more than 100 µM with MDA-MB-435; more than 23.9 µM in the test with MOLT-4 leukemia. Also, the TGI with NCI-H23 lung, in the test on OVCAR-4 ovarian, with SK-MEL-28 melanoma, in the test with SW-620 colon, in the test on T-47D breast and in the test with U251 CNS was more than 100 µM in each case.
As to `O=P(O)(O)CCP(=O)(O)O`, the TGI with COLO 205 colon, with DU-145 prostate, in the test with HS 578T breast, in the test with K-562 leukemia, in the test with MDA-MB-435 and in the test with MOLT-4 leukemia was more than 100 µM in each case. In addition, the TGI in the test on NCI-H23 lung, with OVCAR-4 ovarian, in the test on SK-MEL-28 melanoma, with SW-620 colon, with T-47D breast and with U251 CNS was more than 100 µM each time.
For the molecule `NC(CCCCCP(=O)(c1ccccc1)C1C=CC=CC1)C(=O)O` (stereo not drawn), the TGI in the test on COLO 205 colon, in the test on DU-145 prostate, in the test with HS 578T breast, with K-562 leukemia, in the test with MDA-MB-435 and in the test with MOLT-4 leukemia was more than 100 µM throughout. For the same molecule, the TGI in the test on NCI-H23 lung, with OVCAR-4 ovarian, in the test on SK-MEL-28 melanoma, with SW-620 colon, with T-47D breast and in the test with U251 CNS was more than 100 µM throughout.
In the case of `CCCC(=O)OCC1OC(n2ccc(N)nc2=O)C(OC(=O)CCC)C1OC(=O)CCC` (stereo not drawn), the TGI was more than 100 µM in the test with COLO 205 colon; more than 100 µM with K-562 leukemia; 66.9 µM in the test on MOLT-4 leukemia; more than 100 µM in the test on NCI-H23 lung; more than 100 µM in the test on OVCAR-4 ovarian; more than 95.2 µM in the test with SK-MEL-28 melanoma. The TGI with SW-620 colon and in the test on U251 CNS was more than 100 µM each time.
`Nc1c(C(=O)O)nnc2ccc(Cl)cc12`: the TGI in the test with COLO 205 colon, in the test on DU-145 prostate, in the test on HS 578T breast, with K-562 leukemia, in the test with MDA-MB-435 and in the test with MOLT-4 leukemia was more than 100 µM throughout. For the same molecule, the TGI with NCI-H23 lung, in the test on OVCAR-4 ovarian, in the test with SW-620 colon, in the test with T-47D breast and in the test on U251 CNS was more than 100 µM throughout.
In the case of `COc1ccc(/C=C2\CCNC2=O)cc1`, the TGI in the test on COLO 205 colon, in the test with K-562 leukemia, with MOLT-4 leukemia, in the test on NCI-H23 lung, in the test with OVCAR-4 ovarian and in the test on SK-MEL-28 melanoma was more than 100 µM each time. Further, the TGI in the test with SW-620 colon and in the test on U251 CNS was more than 100 µM each time.
For `O=c1sc2ccccc2n1CC1CS1` (stereo not drawn), the TGI in the test on COLO 205 colon, with K-562 leukemia, in the test with MOLT-4 leukemia, with OVCAR-4 ovarian, in the test on SK-MEL-28 melanoma and in the test on SW-620 colon was more than 100 µM throughout.
Regarding `CN(C)c1ccc(/C=c2/c3ccccc3n3c2c2c([n+]3C)CCCC2)cc1`, the TGI was found to be 0.168 µM in the test on COLO 205 colon; 2.39 µM with DU-145 prostate; 7.21 µM with HS 578T breast; 2.85 µM in the test with K-562 leukemia; 0.717 µM in the test with MDA-MB-435; 1.59 µM in the test on MOLT-4 leukemia. Also, the TGI with NCI-H23 lung came to 6.49 µM; in the test on OVCAR-4 ovarian, 4.58 µM; in the test with SK-MEL-28 melanoma, 2.06 µM; in the test on SW-620 colon, 10.5 µM; in the test on T-47D breast, 0.362 µM; in the test with U251 CNS, 2.3 µM.
For `CCOC(=O)CCC(NC(=O)Cc1ccc(Nc2nc3cc(F)c(F)cc3nc2C(=O)OCC)cc1)C(=O)OCC` (stereo not drawn), the TGI in the test on COLO 205 colon, in the test with DU-145 prostate, in the test with HS 578T breast, in the test with K-562 leukemia, in the test on MDA-MB-435 and in the test on MOLT-4 leukemia was more than 100 µM throughout. The TGI is more than 100 µM in the test with NCI-H23 lung; more than 100 µM with OVCAR-4 ovarian; more than 100 µM in the test with SK-MEL-28 melanoma; more than 100 µM in the test with SW-620 colon; 78.8 µM in the test with T-47D breast; more than 100 µM with U251 CNS.
As for `O=C1c2cccc3c2C(=O)c2c(cccc21)OCCOCCOCCOCCO3`, the TGI in the test on K-562 leukemia, in the test with MOLT-4 leukemia, in the test on NCI-H23 lung, with OVCAR-4 ovarian, in the test with SW-620 colon and with U251 CNS was more than 100 µM in each case.
On to `COc1cc2c(cc1OC)C(CC1=C(c3ccccc3)CN3CCc4cc(OC)c(OC)cc4C3C1)NCC2` (stereo not drawn), for which the TGI turned out to be 31.4 µM in the test with COLO 205 colon; 30.1 µM in the test on K-562 leukemia; 29.5 µM in the test with MOLT-4 leukemia; 52.8 µM in the test on NCI-H23 lung; 29.8 µM in the test on OVCAR-4 ovarian; 28.5 µM in the test with SK-MEL-28 melanoma. The TGI was 34.6 µM in the test with SW-620 colon and 29.8 µM in the test with U251 CNS.
For `C=CCc1c(O)c2c(c3oc(=O)cc(C)c13)CC(C)O2` (stereo not drawn), the TGI with K-562 leukemia, with MOLT-4 leukemia, in the test on NCI-H23 lung, in the test with OVCAR-4 ovarian, with SW-620 colon and in the test with U251 CNS was more than 100 µM each time.
Take `O=c1cc[nH]c(=O)[nH]1`: the TGI is 384 µM in the test with COLO 205 colon; more than 1000 µM in the test with K-562 leukemia; more than 919 µM in the test on MOLT-4 leukemia; more than 315 µM in the test on NCI-H23 lung; more than 1000 µM with OVCAR-4 ovarian; more than 900 µM with SK-MEL-28 melanoma. For the same molecule, the TGI with SW-620 colon and in the test on U251 CNS was more than 1000 µM throughout.
For the molecule `CO/N=C(\C)c1ccc(Nc2nc3ccccc3c3occc23)cc1`, the TGI in the test on COLO 205 colon was 28.1 µM; in the test on DU-145 prostate, 29.7 µM; with HS 578T breast it was 30.7 µM; with K-562 leukemia, 50.7 µM; with MDA-MB-435, 31.1 µM; with MOLT-4 leukemia, 53.1 µM. Moreover, the TGI with NCI-H23 lung amounted to 28.9 µM; in the test with T-47D breast it was 28.9 µM; in the test with U251 CNS, 35.6 µM.
For the molecule `Cc1n(Cc2ccccc2)c2c([n+]1C)C(=O)c1ccccc1C2=O`, the TGI in the test with COLO 205 colon is 0.0794 µM; with DU-145 prostate, 0.32 µM; in the test with HS 578T breast it was 2.14 µM; in the test on K-562 leukemia it was 1.66 µM; with MDA-MB-435, 0.33 µM; with NCI-H23 lung, 0.177 µM. Besides, the TGI was found to be 0.812 µM in the test with OVCAR-4 ovarian; 0.541 µM in the test with SK-MEL-28 melanoma; 0.763 µM in the test on SW-620 colon; 1.33 µM with T-47D breast; 0.131 µM in the test with U251 CNS.
As for `CC(=O)Nc1ccc(N=Nc2c(O)c(S(=O)(=O)O)cc3cc(S(=O)(=O)O)ccc23)cc1`, the TGI in the test with COLO 205 colon, with DU-145 prostate, in the test with HS 578T breast, in the test with K-562 leukemia, in the test with MDA-MB-435 and in the test with NCI-H23 lung was more than 100 µM in each case. The TGI in the test with OVCAR-4 ovarian, with SK-MEL-28 melanoma, in the test with SW-620 colon, in the test on T-47D breast and in the test on U251 CNS was more than 100 µM each time.
Regarding `O=C(O)C(O)C(O)C(O)C(O)c1nc2ccccc2s1` (stereo not drawn), the TGI is more than 100 µM with COLO 205 colon; 31.2 µM in the test with DU-145 prostate; 60.2 µM with HS 578T breast; 31.8 µM with MDA-MB-435; 66.1 µM in the test on NCI-H23 lung; 50.2 µM in the test on OVCAR-4 ovarian. Also, the TGI in the test with SK-MEL-28 melanoma worked out at 38 µM; in the test on SW-620 colon, 54.7 µM; in the test on T-47D breast it was 52.7 µM; in the test with U251 CNS it was 29.5 µM.
Regarding `Cc1c(O)ccc2c(O)c(NC(=O)c3ccc4c(c3)CCC(C)(C)O4)c(=O)oc12`, the TGI in the test on COLO 205 colon, with DU-145 prostate, with HS 578T breast, in the test with K-562 leukemia, in the test with MDA-MB-435 and in the test on MOLT-4 leukemia was more than 100 µM each time. In addition, the TGI in the test with NCI-H23 lung, in the test on OVCAR-4 ovarian, in the test on SK-MEL-28 melanoma, with SW-620 colon, in the test on T-47D breast and in the test on U251 CNS was more than 100 µM each time.
In the case of `C[n+]1c2ccc(Cl)cc2nc2cc(-c3ccccc3)ccc21`, the TGI with COLO 205 colon was found to be 16 µM; with DU-145 prostate, 50.8 µM; in the test with HS 578T breast it was 65 µM; in the test on K-562 leukemia, 66.8 µM; with MOLT-4 leukemia, 5.19 µM; with NCI-H23 lung, 23.2 µM. Besides, the TGI with OVCAR-4 ovarian was 40.5 µM; with SK-MEL-28 melanoma, 43.8 µM; in the test on SW-620 colon, more than 100 µM; in the test on U251 CNS, more than 100 µM.
With `CC(=O)c1ccccc1NP(=O)(c1ccccc1)c1ccccc1`, the TGI with COLO 205 colon is 34.4 µM; in the test with DU-145 prostate it was more than 100 µM; in the test on HS 578T breast, more than 100 µM; in the test on K-562 leukemia, more than 100 µM; in the test on MDA-MB-435, more than 100 µM; with MOLT-4 leukemia it was more than 100 µM. The TGI with NCI-H23 lung, in the test with OVCAR-4 ovarian, in the test with SK-MEL-28 melanoma, in the test on SW-620 colon, in the test on T-47D breast and with U251 CNS was more than 100 µM each time.

Values taken from PubChem BioAssay (NCI).
